Experimental data: the NIST ThermoML archive (doi:10.1021/je700042z)
Values joined by “and” are separate entries in the source; they are usually repeats but may differ in a detail not shown here. Equal values may be shown once.

Assay: cn = amount concentration of the nth substance listed, in mol/dm3
Conditions: 298.15 K, 101 kPa, Liquid

O=C(O)CC(=O)O [propanedioic acid] + O
Conditions	binary diffusion coefficient
c1 = 0.000124	1.67e-09 m2/s and 1.68e-09 m2/s
c1 = 0.000252	1.59e-09 m2/s and 1.61e-09 m2/s and 1.6e-09 m2/s
c1 = 0.000253	1.61e-09 m2/s and 1.6e-09 m2/s and 1.59e-09 m2/s
c1 = 0.000378	1.53e-09 m2/s and 1.52e-09 m2/s
c1 = 0.000379	1.52e-09 m2/s
c1 = 0.000502	1.49e-09 m2/s
c1 = 0.000627	1.46e-09 m2/s and 1.45e-09 m2/s
c1 = 0.000751	1.42e-09 m2/s
c1 = 0.000803	1.4e-09 m2/s
c1 = 0.00138	1.32e-09 m2/s and 1.33e-09 m2/s
c1 = 0.0019	1.27e-09 m2/s
c1 = 0.0025	1.23e-09 m2/s and 1.22e-09 m2/s
c1 = 0.0035	1.19e-09 m2/s and 1.18e-09 m2/s
c1 = 0.00454	1.16e-09 m2/s
c1 = 0.0046	1.14e-09 m2/s and 1.15e-09 m2/s and 1.16e-09 m2/s
c1 = 0.00701	1.11e-09 m2/s
c1 = 0.0101	1.08e-09 m2/s
c1 = 0.0118	1.07e-09 m2/s and 1.08e-09 m2/s
c1 = 0.015	1.06e-09 m2/s and 1.07e-09 m2/s and 1.05e-09 m2/s
c1 = 0.0201	1.03e-09 m2/s

O=[As](O)(O)O [arsenic acid] + O
Conditions	binary diffusion coefficient
c1 = 0.000125	1.5e-09 m2/s and 1.49e-09 m2/s
c1 = 0.000407	1.41e-09 m2/s
c1 = 0.000837	1.35e-09 m2/s
c1 = 0.00101	1.33e-09 m2/s and 1.32e-09 m2/s
c1 = 0.00206	1.24e-09 m2/s
c1 = 0.00251	1.21e-09 m2/s
c1 = 0.00351	1.17e-09 m2/s
c1 = 0.00471	1.13e-09 m2/s and 1.14e-09 m2/s
c1 = 0.00506	1.12e-09 m2/s
c1 = 0.00701	1.08e-09 m2/s and 1.09e-09 m2/s
c1 = 0.00825	1.08e-09 m2/s and 1.07e-09 m2/s
c1 = 0.0119	1.03e-09 m2/s and 1.04e-09 m2/s
c1 = 0.014	1.02e-09 m2/s
